Assay results published in ChEMBL document CHEMBL3734663, “Solid-phase synthesis and in vitro biological activity of a Thr4→Ser4 analog of daptomycin” (2015).

Columns and labels:
Assay type in all cases: functional
Bacillus subtilis [1] = experiment: Antibacterial activity against Bacillus subtilis 1046 in presence of 1.8 mM Ca2+
Bacillus subtilis [2] = experiment: Antibacterial activity against Bacillus subtilis 1046 in presence of 5 mM Ca2+
Bacillus subtilis [3] = experiment: Antibacterial activity against Bacillus subtilis 1046 in presence of 100 mM Ca2+

CCCCCCCCCC(=O)N[C@@H](Cc1c[nH]c2ccccc12)C(=O)N[C@@H](CC(N)=O)C(=O)N[C@@H](CC(=O)O)C(=O)N[C@H]1COC(=O)[C@H](Cc2c[nH]c3ccccc23)NC(=O)[C@H](CCC(=O)O)NC(=O)[C@@H](CO)NC(=O)CNC(=O)[C@H](CC(=O)O)NC(=O)[C@@H](C)NC(=O)[C@H](CC(=O)O)NC(=O)[C@H](CCCN)NC(=O)CNC1=O
MIC (Bacillus subtilis [1]): 5 µg/mL | MIC (Bacillus subtilis [2]): 1.5 µg/mL | MIC (Bacillus subtilis [3]): 1.5 µg/mL

CCCCCCCCCC(=O)N[C@@H](Cc1c[nH]c2ccccc12)C(=O)N[C@@H](CC(N)=O)C(=O)N[C@@H](CC(=O)O)C(=O)N[C@H]1COC(=O)[C@H](Cc2c[nH]c3ccccc23)NC(=O)[C@H](CCC(=O)O)NC(=O)[C@@H](CO)NC(=O)CNC(=O)[C@H](CC(=O)O)NC(=O)[C@@H](C)NC(=O)[C@H](C)NC(=O)[C@H](CCCN)NC(=O)CNC1=O
MIC (Bacillus subtilis [1]): > 100 µg/mL | MIC (Bacillus subtilis [2]): > 100 µg/mL | MIC (Bacillus subtilis [3]): > 100 µg/mL

CCCCCCCCCC(=O)N[C@@H](Cc1c[nH]c2ccccc12)C(=O)N[C@@H](CC(N)=O)C(=O)N[C@@H](CC(=O)O)C(=O)N[C@H]1COC(=O)[C@H](Cc2ccc(O)cc2)NC(=O)[C@H](CCC(=O)O)NC(=O)[C@@H](CO)NC(=O)CNC(=O)[C@H](CC(=O)O)NC(=O)[C@@H](C)NC(=O)[C@H](CC(=O)O)NC(=O)[C@H](CCCN)NC(=O)CNC1=O
MIC (Bacillus subtilis [2]): 35 µg/mL | MIC (Bacillus subtilis [3]): 1.3 µg/mL

CCCCCCCCCC(=O)N[C@@H](Cc1c[nH]c2ccccc12)C(=O)N[C@H](CC(N)=O)C(=O)N[C@@H](CC(=O)O)C(=O)N[C@@H]1C(=O)NCC(=O)N[C@@H](CCCN)C(=O)N[C@@H](CC(=O)O)C(=O)N[C@H](C)C(=O)N[C@@H](CC(=O)O)C(=O)NCC(=O)N[C@H](CO)C(=O)N[C@@H]([C@H](C)CC(=O)O)C(=O)N[C@@H](CC(=O)c2ccccc2N)C(=O)O[C@@H]1C
MIC (Bacillus subtilis [1]): 1 µg/mL | MIC (Bacillus subtilis [2]): 0.75 µg/mL | MIC (Bacillus subtilis [3]): 0.5 µg/mL

CCCCCCCCCC(=O)N[C@@H](Cc1c[nH]c2ccccc12)C(=O)NC(CC(N)=O)C(=O)N[C@@H](CC(=O)O)C(=O)N[C@@H]1C(=O)NCC(=O)N[C@@H](CCCN)C(=O)N[C@@H](CC(=O)O)C(=O)N[C@H](C)C(=O)N[C@@H](CC(=O)O)C(=O)NCC(=O)N[C@H](CO)C(=O)N[C@@H](C(C)CC(=O)O)C(=O)N[C@@H](CC(=O)c2ccccc2N)C(=O)O[C@@H]1C (single isomer, unassigned) [DAPTOMYCIN]
MIC (Bacillus subtilis [1]): 40 µg/mL | MIC (Bacillus subtilis [2]): 5 µg/mL | MIC (Bacillus subtilis [3]): 5 µg/mL
